Assay results taken from US12018016B2, “Aryl sulfonyl (hydroxy) piperidines as CCR6 inhibitors” (CHEMOCENTRYX, INC., priority 2021, dated 2024).
pIC50: −log10 of the molar value.

What follows are compounds tested against T1, human CCR6 (Homo sapiens, UniProt P51684) (assay: Migration assay (chemotaxis, ChemoTX)). Details: hCCR6-transfected Ba/F3 cells in human serum, migration to recombinant human CCL20 10 nM, 37° C. 45 minutes; read-out: Potency (IC50 value in the migration assay).
T1 construct: expressed in transfected cells; host or cells: Ba/F3 cells (mouse pro-B line)
T1 sequence (P51684 1-374): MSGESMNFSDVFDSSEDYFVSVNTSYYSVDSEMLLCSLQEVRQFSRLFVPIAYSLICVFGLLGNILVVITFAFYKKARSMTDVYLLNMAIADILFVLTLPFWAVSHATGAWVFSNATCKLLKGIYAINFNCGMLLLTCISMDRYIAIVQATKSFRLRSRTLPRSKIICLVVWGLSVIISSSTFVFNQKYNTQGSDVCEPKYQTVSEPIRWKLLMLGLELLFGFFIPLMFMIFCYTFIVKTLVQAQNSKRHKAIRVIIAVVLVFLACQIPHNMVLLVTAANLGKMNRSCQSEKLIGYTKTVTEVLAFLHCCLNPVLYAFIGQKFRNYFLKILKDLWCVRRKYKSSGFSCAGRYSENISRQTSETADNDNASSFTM
Format: cell-based
Method in brief: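 Ba/F3 cells transfected with human CCR6 and butyrate-primed for 24 h were suspended at 4 million/ml in human serum with compound, serially diluted from a 1 μM final top concentration. Cells migrated through a 5-μm polycarbonate membrane toward 10 nM human CCL20 for 45 min at 37 °C. Migrated cells were quantified by CyQUANT fluorescence.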
For `O=C1CNCCN1c1ccc(-c2ccc(S(=O)(=O)N3CC[C@@H](Nc4ccc(C(F)(F)F)cn4)[C@@H](O)C3)cc2)cn1` [Compound 179], the pIC50 was > 9.00. With `O=c1[nH]ncc2ccc(-c3ccc(S(=O)(=O)N4CC[C@@H](Nc5ccc(C(F)(F)F)cn5)[C@@H](O)C4)cc3)cc12` [Compound 180] the pIC50 was > 9.00. In the case of `N#Cc1n[nH]c2ncc(-c3ccc(S(=O)(=O)N4CC[C@@H](Nc5ccc(C(F)(F)F)cn5)[C@@H](O)C4)cc3)cc12` [Compound 193], the pIC50 was > 9.00. In the case of `O=c1[nH]c2ccc(-c3ccc(S(=O)(=O)N4CC[C@@H](Nc5ccc(C(F)(F)F)cn5)[C@@H](O)C4)cc3)cc2[nH]1` [Example 47, 5-(4-(((3S,4R)-3-hydroxy-4-((5-(trifluoromethyl)pyridin-2-yl)amino)piperidin-1-yl)sulfonyl)phenyl)-1,3-dihydro-2H-benzo[d]imidazol-2-one], the pIC50 was > 9.00. In the case of `O=S(=O)(c1ccc(-c2ccc(N3CCCC3)nc2)cc1)N1CC[C@@H](Nc2ccc(C(F)(F)F)cn2)[C@@H](O)C1` [Compound 172], the pIC50 was > 9.00. For `Cc1nc(-c2cc(-c3ccc(S(=O)(=O)N4CC[C@@H](Nc5ccc(C(F)(F)F)cn5)[C@@H](O)C4)cc3)ccn2)no1` [Compound 67, (3S,4R)-1-((4-(2-(5-methyl-1,2,4-oxadiazol-3-yl)pyridin-4-yl)phenyl)sulfonyl)-4-((5-(trifluoromethyl)pyridin-2-yl)amino)piperidin-3-ol], the pIC50 was > 9.00. In the case of `Cc1cnc(C#N)c(C)c1-c1ccc(S(=O)(=O)N2CC[C@@H](Nc3ccc(C(F)(F)F)cn3)[C@@H](O)C2)cc1` [Compound 75, 4-(4-(((3S,4R)-3-hydroxy-4-((5-(trifluoromethyl)pyridin-2-yl)amino)piperidin-1-yl)sulfonyl)phenyl)-3,5-dimethylpicolinonitrile], the pIC50 was > 9.00. For `O=S(=O)(c1ccc(-c2cnnc(Cl)c2)cc1)N1CC[C@@H](Nc2ccc(C(F)(F)F)cn2)[C@@H](O)C1` [Compound 201], the pIC50 was > 9.00. Compound `O=S(=O)(c1ccc(-c2ccnc(N3CCNCC3)c2)cc1)N1CC[C@@H](Nc2ccc(C(F)(F)F)cn2)[C@@H](O)C1` [Compound 158] has a pIC50 of 8.00 to 9.00. For `Nc1nnc(-c2cc(-c3ccc(S(=O)(=O)N4CC[C@@H](Nc5ccc(C(F)(F)F)cn5)[C@@H](O)C4)cc3)ccn2)o1` [Compound 69, (3S,4R)-1-((4-(2-(5-amino-1,3,4-oxadiazol-2-yl)pyridin-4-yl)phenyl)sulfonyl)-4-((5-(trifluoromethyl)pyridin-2-yl)amino)piperidin-3-ol], the pIC50 was > 9.00. Compound `Cn1cc(-c2ccc(S(=O)(=O)N3CC[C@@H](Nc4ccc(C(F)(F)F)cn4)[C@@H](O)C3)cc2)nc1C(N)=O` [Compound 72, 4-(4-(((3S,4R)-3-hydroxy-4-((5-(trifluoromethyl)pyridin-2-yl)amino)piperidin-1-yl)sulfonyl)phenyl)-1-methyl-1H-imidazole-2-carboxamide] has a pIC50 of 8.00 to 9.00. In the case of `NC(=O)c1cc(-c2ccc(S(=O)(=O)N3CC[C@@H](Nc4ccc(Cl)cn4)[C@@H](O)C3)cc2)ccn1` [Compound 87], the pIC50 was > 9.00. In the case of `O=S(=O)(c1ccc(-c2cc(F)c3[nH]ncc3c2)cc1)N1CC[C@@H](Nc2ccc(C(F)(F)F)cn2)[C@@H](O)C1` [Compound 120], the pIC50 was > 9.00. In the case of `COC1CN(c2cc(-c3ccc(S(=O)(=O)N4CC[C@@H](Nc5ccc(C(F)(F)F)cn5)[C@@H](O)C4)cc3)ccn2)C1` [Compound 136], the pIC50 was 8.00 to 9.00. For `CN1CC2(C1)CN(c1ccc(-c3ccc(S(=O)(=O)N4CC[C@@H](Nc5ccc(C(F)(F)F)cn5)[C@@H](O)C4)cc3)cn1)C2` [Compound 99], the pIC50 was > 9.00. In the case of `Cc1c(-c2ccc(S(=O)(=O)N3CC[C@@H](Nc4ccc(C(F)(F)F)cn4)[C@@H](O)C3)cc2)cnc2[nH]cc(C#N)c12` [Example 56, 5-(4-(((3S,4R)-3-hydroxy-4-((5-(trifluoromethyl)pyridin-2-yl)amino)piperidin-1-yl)sulfonyl)phenyl)-4-methyl-1H-pyrrolo[2,3-b]pyridine-3-carbonitrile], the pIC50 was > 9.00. For `N#Cc1c[nH]c2ncc(-c3ccc(S(=O)(=O)N4CC[C@@H](Nc5ccc(C(F)(F)F)cn5)[C@@H](O)C4)cc3)cc12` [Example 61, 5-(4-(((3S,4R)-3-hydroxy-4-((5-(trifluoromethyl)pyridin-2-yl)amino)piperidin-1-yl)sulfonyl)phenyl)-1H-pyrrolo[2,3-b]pyridine-3-carbonitrile], the pIC50 was > 9.00. For `O=c1[nH]ncc2cc(-c3ccc(S(=O)(=O)N4CC[C@@H](Nc5ccc(C(F)(F)F)cn5)[C@@H](O)C4)cc3)ccc12` [Example 5, 6-(4-(((3S,4R)-3-hydroxy-4-((5-(trifluoromethyl)pyridin-2-yl)amino)piperidin-1-yl)sulfonyl)phenyl)phthalazin-1(2H)-one], the pIC50 was > 9.00. In the case of `Cc1c(-c2ccc(S(=O)(=O)N3CC[C@@H](Nc4ccc(C(F)(F)F)cn4)[C@@H](O)C3)cc2)ccc2[nH]nc(C#N)c12` [Example 35, 5-(4-(((3S,4R)-3-hydroxy-4-((5-(trifluoromethyl)pyridin-2-yl)amino)piperidin-1-yl)sulfonyl)phenyl)-4-methyl-1H-indazole-3-carbonitrile], the pIC50 was > 9.00. In the case of `NS(=O)(=O)c1cc(-c2ccc(S(=O)(=O)N3CC[C@@H](Nc4ccc(C(F)(F)F)cn4)[C@@H](O)C3)cc2)ccn1` [Compound 181], the pIC50 was > 9.00. For `Cc1c(-c2ccc(S(=O)(=O)N3CC[C@@H](Nc4ccc(C#N)cn4)[C@@H](O)C3)cc2)cnc2[nH]ccc12` [Example 33, 6-[[(3S,4R)-3-hydroxy-1-[4-(4-methyl-1H-pyrrolo[2,3-b]pyridin-5-yl)phenyl]sulfonyl-4-piperidyl]amino]pyridine-3-carbonitrile], the pIC50 was > 9.00. With `O=C1NCc2ncc(-c3ccc(S(=O)(=O)N4CC[C@@H](Nc5ccc(C(F)(F)F)cn5)[C@@H](O)C4)cc3)cc21` [Example 48, 3-(4-(((3S,4R)-3-hydroxy-4-((5-(trifluoromethyl)pyridin-2-yl)amino)piperidin-1-yl)sulfonyl)phenyl)-6,7-dihydro-5H-pyrrolo[3,4-b]pyridin-5-one] the pIC50 was > 9.00. Compound `NC(=O)c1ncc(-c2ccc(S(=O)(=O)N3CC[C@@H](Nc4ccc(C(F)(F)F)cn4)[C@@H](O)C3)cc2)cc1N` [Example 19, 3-Amino-5-(4-(((3S,4R)-3-hydroxy-4-((5-(trifluoromethyl)pyridin-2-yl)amino)piperidin-1-yl)sulfonyl)phenyl)picolinamide] has a pIC50 of 8.00 to 9.00. `Cc1cc(C(F)(F)F)cnc1N[C@@H]1CCN(S(=O)(=O)c2ccc(-c3cnc(C(N)=O)n3C)cc2)C[C@@H]1O` [Compound 83, 5-[4-[[(3S,4R)-3-hydroxy-4-[[3-methyl-5-(trifluoromethyl)-2-pyridyl]amino]-1-piperidyl]sulfonyl]phenyl]-1-methyl-imidazole-2-carboxamide] was tested, and the pIC50 was > 9.00. `Cc1nnc(-c2cc(-c3ccc(S(=O)(=O)N4CC[C@@H](Nc5ccc(C(F)(F)F)cn5)[C@@H](O)C4)cc3)ccn2)o1` [Example 11, (3S,4R)-1-((4-(2-(5-methyl-1,3,4-oxadiazol-2-yl)pyridin-4-yl)phenyl)sulfonyl)-4-((5-(trifluoromethyl)pyridin-2-yl)amino)piperidin-3-ol] was tested, and the pIC50 was > 9.00. In the case of `Cc1cnc(-c2cc(-c3ccc(S(=O)(=O)N4CC[C@@H](Nc5ccc(C(F)(F)F)cn5)[C@@H](O)C4)cc3)ccn2)o1` [Compound 70, (3S,4R)-1-((4-(2-(5-methyloxazol-2-yl)pyridin-4-yl)phenyl)sulfonyl)-4-((5-(trifluoromethyl)pyridin-2-yl)amino)piperidin-3-ol], the pIC50 was > 9.00. With `O=C1Nc2ncc(-c3ccc(S(=O)(=O)N4CC[C@@H](Nc5ccc(C(F)(F)F)cn5)[C@@H](O)C4)cc3)cc2C12CCC2` [Compound 159] the pIC50 was > 9.00. With `O=S(=O)(c1ccc(-c2ccnc(N3CCC3)c2)cc1)N1CC[C@@H](Nc2ccc(C(F)(F)F)cn2)[C@@H](O)C1` [Compound 139] the pIC50 was > 9.00. In the case of `O=S(=O)(c1ccc(-c2ccnc(N3CCC(O)CC3)c2)cc1)N1CC[C@@H](Nc2ccc(C(F)(F)F)cn2)[C@@H](O)C1` [Compound 131], the pIC50 was > 9.00. `O=S(=O)(c1ccc(-c2ccnc(N3CC[C@H](O)C3)c2)cc1)N1CC[C@@H](Nc2ccc(C(F)(F)F)cn2)[C@@H](O)C1` [Compound 133] was tested, and the pIC50 was > 9.00. `Nc1n[nH]c2cc(-c3ccc(S(=O)(=O)N4CC[C@@H](Nc5ccc(C(F)(F)F)cn5)[C@@H](O)C4)cc3)ccc12` [Example 55, (3S,4R)-1-((4-(3-amino-1H-indazol-6-yl)phenyl)sulfonyl)-4-((5-(trifluoromethyl)pyridin-2-yl)amino)piperidin-3-ol] was tested, and the pIC50 was > 9.00. For `O=C1C[C@H](Nc2cc(-c3ccc(S(=O)(=O)N4CC[C@@H](Nc5ccc(C(F)(F)F)cn5)[C@@H](O)C4)cc3)ccn2)CN1` [Compound 127], the pIC50 was 8.00 to 9.00. With `CN(C)c1cc(-c2ccc(S(=O)(=O)N3CC[C@@H](Nc4ccc(C(F)(F)F)cn4)[C@@H](O)C3)cc2)cc(C(N)=O)n1` [Compound 196] the pIC50 was > 9.00. `Cc1cc2[nH]ncc2cc1-c1ccc(S(=O)(=O)N2CC[C@@H](Nc3ccc(C(F)(F)F)cn3)[C@@H](O)C2)cc1` [Example 25, (3S,4R)-1-((4-(6-methyl-1H-indazol-5-yl)phenyl)sulfonyl)-4-((5-(trifluoromethyl)pyridin-2-yl)amino)piperidin-3-ol] showed a pIC50 of 8.00 to 9.00. With `O=C1C[C@H](Nc2ccc(-c3ccc(S(=O)(=O)N4CC[C@@H](Nc5ccc(C(F)(F)F)cn5)[C@@H](O)C4)cc3)cn2)CN1` [Compound 167] the pIC50 was > 9.00.
